Test results from patent US5344841A, “Bis-(hydroxylakylamino)-anthraquinone inhibitors of protein kinase C” (Sphinx Pharmaceuticals Corporation, priority 1992, dated 1994).

Experiments:
protein kinase C = assay: Protein kinase C (PKC) inhibition assay (histone H1 phosphorylation); format: biochemical; details: rat brain PKC, histone H1 substrate
Description: The protein kinase C (PKC) assay is designed to duplicated the in vivo conditions required for protein kinase C function. Therefore, pH, salt and cofactor concentrations are similar to physiologic levels. Histone H1 (lysine rich) is used in the assay as the phosphorylation acceptor protein because it is readily available and serves as a good substrate for protein kinase C. The enzyme is prepared from rat brain and is purified to apparent homogeneity as determined by a single band on silver stained SDS-polyacrylamide. Studies on the mechanism of regulation of protein kinase C by phospholipids, DAG and Ca^+2 have been hampered by the physical properties of the lipid cofactors. In the screening assay, phosphatidylserine (PS) and DAG are cosonicated to form unilamellar and multilamellar vesicles. The concentration of lipids in the assay are suboptimal to maximize the detection potential of the assay for inhibitors. […] The assay is started with the addition of enzyme and stopped after 10 min by the addition of 25% trichloroacetic acid (TCA) and 1.0 mg/ml bovine serum albumin (BSA). The radioactive histone product is retained and washed on glass fiber filters that allow the unreacted ^32 P-ATP to pass through. The amount of phosphorylation is determined by the radioactivity measured in a scintillation counter. Controls are included in every assay to measure background activity in the absence of enzyme, activity in the absence of lipids and the maximum enzyme activity with saturating levels of the activator lipids.

[1] = system: MCF-7 human breast tumor cell line; assay: Human tumor growth inhibition, 3H-thymidine incorporation, MCF-7; format: cell-based; details: 3H-thymidine uptake; read-out: IC50 MCF-7
From the text: (§1) MCF-7 a human breast tumor cell line, and MCF-7/ADR an adriamycin resistant line of MCF-7 cells were obtained from the National Cancer Institute, Frederick, Md. NHEK a human keratinocyte cell line was obtained from Clonetic Corp., San Diego, Calif. 8226 a human myeloma cell line, 8226/MT a Mitoxantrone resistant line of 8226 cells, and 8226 ADR an adriamycin resistant line of 8226 cells were obtained from Dr. Bill Dalton, Arizona Cancer Center, Tuscon, Ariz.
(§2) Human tumor cells are trypsinized (0.05% trypsin, GIBCO), counted with a hemacytometer and seeded at a concentration of 10,000 cells/well in a 96 well microtiter plate. After allowing cells to attach to the surface overnight, the culture medium is aspirated and replaced with 100 μl of fresh medium. Test agents are diluted to determine dose response at 2× final concentration and added in quadruplicate at 100 μl/well to bring the total volume of each well to 200 μl. The microtiter plate is then incubated at 37° C. 5% CO2 overnight (18-24 hrs) before ^3 H-thymidine is added at a concentration of 0.5 μCi/well in 50 μl culture medium. The plate is incubated again for 4 hrs under the same conditions as above. Supernatant is then aspirated and 50 μl trypsin (0.05%, GIBCO) is added to each well. Cells are checked microscopically to determine detachment from surfaces, and plates are then harvested with a cell harvester (PHD, Cambridge Technology, Inc.) Filter papers corresponding to wells are placed in scintillation vials and counted to determine the amount of ^3 H-thymidine incorporated by the cells. Test agent response is compared to a positive control of cell wells with culture media only to determine the IC50. IC50 is the concentration of test compound required to inhibit fifty percent of the incorporation of ^3 H-thymidine into proliferating cells not exposed to test agent. Uptake of ^3 H-thymidine is a standard test for measuring the metabolism of cells. Cells which are actively proliferating take up ^3 H-thymidine, whereas cells that are not proliferating take up ^3 H-thymidine at much slower rates or not at all. Test agents that inhibit the uptake of ^3 H-thymidine thus slow the growth of cells.

[2] = system: MCF-7/ADR adriamycin resistant line of MCF-7 cells; assay: Human tumor growth inhibition, 3H-thymidine incorporation, MCF-7/ADR; format: cell-based; details: MCF-7/ADR vs MCF-7
From the text: as §1, §2

NHEK human keratinocytes = assay: Human keratinocyte inhibition, 3H-thymidine incorporation; format: cell-based
Description: Human tumor cells are trypsinized (0.05% trypsin, GIBCO), counted with a hemacytometer and seeded at a concentration of 10,000 cells/well in a 96 well microtiter plate. After allowing cells to attach to the surface overnight, the culture medium is aspirated and replaced with 100 μl of fresh medium. Test agents are diluted to determine dose response at 2× final concentration and added in quadruplicate at 100 μl/well to bring the total volume of each well to 200 μl. The microtiter plate is then incubated at 37° C. 5% CO2 overnight (18-24 hrs) before ^3 H-thymidine is added at a concentration of 0.5 μCi/well in 50 μl culture medium. The plate is incubated again for 4 hrs under the same conditions as above. […] Cells are checked microscopically to determine detachment from surfaces, and plates are then harvested with a cell harvester (PHD, Cambridge Technology, Inc.) Filter papers corresponding to wells are placed in scintillation vials and counted to determine the amount of ^3 H-thymidine incorporated by the cells. […]
Proliferating keratinocytes (NHEK cells purchased from Clonetics, Inc. San Diego, Calif.) in second passage were grown in Keratinocyte Growth Medium (KGM) (Clonetics, Inc.) Cells were trypsinized with 0.025% trypsin (Clonetics), counted with a hemacytometer (Scientific Products), and seeded at a concentration of 2,500 cells/well in a 96 well microtiter plate. […]

[3] = system: MCF-7 human mammary carcinoma xenografts; assay: MCF-7 human mammary carcinoma xenografts in athymic nude mice; format: in vivo, mouse (human tumor xenograft); details: FIG. 4
[4] = system: MCF-7/ADR adriamycin resistant line of MCF-7 cells; assay: Human tumor growth inhibition, 3H-thymidine incorporation, MCF-7/ADR; format: cell-based; details: NCI/ADR-RES, 3H-thymidine uptake
[5] = system: 8226/MT Mitoxantrone resistant line of 8226 cells; assay: Human tumor growth inhibition, 3H-thymidine incorporation, 8226/MT

Compound: CCN(CC)CC(O)CNc1ccc(NCC2CO2)c2c1C(=O)c1ccccc1C2=O (centres unmarked) [Compound 1b-1, 1-(3-diethylamino-2-hydroxypropylamino)-4-(2,3-epoxypropylamino)-9, 10-anthracenedione]
- IC50 (protein kinase C): 110 µM
- IC50 [1]: 0.025 µM
- Resistance Ratio (IC50 MCF-7/ADR to IC50 MCF-7) [2]: 2.4
- IC50 (NHEK human keratinocytes): 0.04 µM
- median tumor weight vs control mice (in words) ([3]; at stabilization): significantly lower than the weight of the control mice
- day at which tumor growth was stabilized ([3]; iv, once every four days, five injections): ~30 days
- day until which median tumor weight remained stable ([3]; then tumor regrowth): ~38 days
- IC50 [4]: 0.06 µM
- Resistance Ratio (8226/MT) ([5]; 8226/MT vs 8226): 0.13
- IC50 ([5]; Homo sapiens, read-out: IC50 8226/MT): 0.008 µM
- ratio of IC50 for 8226 cells to IC50 for 8226/MT cells ([5]; text wording of ratio): 0.13
